Reference: ChEMBL document CHEMBL1201862, “PubChem BioAssay data set” (2004)
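Dose response: 5 concentrations. Exposure: 48 h. Format: 96-well plates. Endpoint: linear interpolation; highest concentration if not reached. GI50 marks 50% less growth.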 The source made the active and inactive calls. Rule as the data show it: active = GI50 up to about 1.1 µM and inactive = higher.

What was measured:
Experiment in all cases: growth of human tumour cells (NCI), 48 h
SR = tested on: SR
OVCAR-8 = tested on: OVCAR-8
OVCAR-3 = tested on: OVCAR-3
MCF7 = tested on: MCF7
HCT-15 = tested on: HCT-15
HT-29 = tested on: HT-29
SK-MEL-28 = tested on: SK-MEL-28
SW-620 = tested on: SW-620
786-0 = tested on: 786-0
SN12C = tested on: SN12C
A498 = tested on: A498
HCT-116 = tested on: HCT-116
LOX IMVI = tested on: LOX IMVI
HCC 2998 = tested on: HCC 2998
RXF 393 = tested on: RXF 393
SNB-78 = tested on: SNB-78
TK-10 = tested on: TK-10
M14 = tested on: M14
NCI-H226 = tested on: NCI-H226
DMS-114 = tested on: DMS-114

SMILES: O=C1CCC(c2ccccc2)=NN1c1nc2ccccc2s1
- GI50 (SR): 29.7 µM (inactive)
- GI50 (OVCAR-8): 34.8 µM (inactive)
- GI50 (OVCAR-3): 17.9 µM (inactive)
- GI50 (MCF7): 27 µM (inactive)
- GI50 (HCT-15): 29.6 µM
- GI50 (HT-29): 37.4 µM (inactive)
- GI50 (SK-MEL-28): 40.2 µM (inactive)
- GI50 (SW-620): 37.4 µM (inactive)
- GI50 (786-0): 38.3 µM (inactive)
- GI50 (SN12C): 29.4 µM (inactive)
- GI50 (A498): 30.1 µM (inactive)
- GI50 (HCT-116): 29.5 µM (inactive)
- GI50 (LOX IMVI): 38.6 µM (inactive)
- GI50 (HCC 2998): 26.9 µM (inactive)
- GI50 (RXF 393): 15.4 µM (inactive)
- GI50 (SNB-78): 41.2 µM (inactive)
- GI50 (TK-10): 35.8 µM (inactive)
- GI50 (M14): 49.7 µM (inactive)
- GI50 (NCI-H226): 90.8 µM (inactive)
- GI50 (DMS-114): 31 µM (inactive)

SMILES: CCCCCCCC(=O)O[C@H]1[C@H]2[C@@H](CC1(C)C)C(=O)[C@]13O[C@H]1C(=O)[C@]1(CO1)[C@]23C
- GI50 (SR): 2.07 µM (inactive)
- GI50 (OVCAR-8): 2.48 µM (inactive)
- GI50 (OVCAR-3): 2.91 µM (inactive)
- GI50 (MCF7): 3.25 µM (inactive)
- GI50 (HCT-15): 2.96 µM
- GI50 (HT-29): 5.19 µM (inactive)
- GI50 (SK-MEL-28): 3.38 µM (inactive)
- GI50 (SW-620): 0.706 µM (active)
- GI50 (786-0): 5.07 µM (inactive)
- GI50 (SN12C): 4.17 µM (inactive)
- GI50 (A498): 9.16 µM (inactive)
- GI50 (LOX IMVI): 1.34 µM (inactive)
- GI50 (HCC 2998): 5.96 µM (inactive)
- GI50 (RXF 393): 2.22 µM (inactive)
- GI50 (SNB-78): 4.94 µM (inactive)
- GI50 (TK-10): 2.75 µM (inactive)
- GI50 (M14): 3.92 µM (inactive)
- GI50 (NCI-H226): 13.9 µM (inactive)
- GI50 (DMS-114): 3.41 µM (inactive)
